# Experimental data: patent US20050261264A1, “Rare-earth ternary complex” (priority 2000, published 2005)
# Columns and labels:
# Assay type in all cases: physicochemical
# [1] = Miscibility with solvents, visual evaluation at 5 wt %; set-up: key: ⊚: dissolves at room temperature; ◯: dissolves when heated for 5 minutes at 40° C.; Δ: dissolves under heating, but cooling precipitates crystals; X: does not dissolve; settings: complex added at 5 wt %
# Protocol: (§1) The miscibility of the rare earth complex with various media was evaluated as follows.
# 1) Miscibility with Solvents
# [2] = Miscibility with a polymer matrix, visual evaluation; set-up: key to Miscibility, PMMA: ⊚: dissolves up to 30 wt %; ◯: dissolves up to 5 wt %; Δ: disperses up to 5 wt %, but there is turbidity; X: repelled at the polymer surface
# Protocol: as §1
# 2) Miscibility with a Polymer Matrix
# The rare earth complex serving as the sample was added in the concentrations listed with the evaluation criteria below relative to various media, and the miscibility was visually evaluated according to the following criteria. • ⊚: dissolves up to 30 wt % • ◯: dissolves up to 5 wt % • Δ: disperses up to 5 wt %, but there is turbidity • X: repelled at the polymer surface
# [3] = Number of moles of bound water per mole of complex (TG-DTA); settings: for Bound water (number of moles of bound water per mole of complex): Table 1, dried samples for the ternary complexes
# Protocol: The number of moles of bound water per mole of complex was measured using a TG-DTA 2000 from MAC Science.
# A 20 g quantity of Eu(PMS)3 was added to 100 mL of isopropanol, then 43 g ([…] the molar amount of the Eu(PMS)3) of triphenylphosphine oxide (hereinafter referred to as TPPO) was added, and the system was refluxed for 3 hours, and then gradually cooled. The resulting white powder was filtered off. The white powder thus obtained was washed with hot n-hexane, and recrystallized with water-methanol to obtain 44 g of Eu(PMS)3(TPPO)8 in the form of white acicular crystals (yield: 85%). The TG-DTA was measured for these crystals, and it was found from the weight reduction at 100° C. that the number of moles of bound water per mole of complex was 2.93. The IR, NMR, UV absorption characteristics, and elemental analysis results for the obtained Eu(PMS)3(TPPO)8(H2O)2.93 are given below.
# Eu(PMS)3(TPPO)8(H2O)2.93 obtained by the above synthesis method was dried in vacuo for 3 hours at 140° C. and a reduced pressure of […]. TG-DTA measurement for the resulting white powder was carried out to obtain a weight reduction at 100° C. It was found from the obtained value that the number of moles of bound water per mole of complex was 0.18.
# [4] = Luminescence quantum yield and luminescence intensity in solution
# Protocol: (§2) The intensity of luminescence and the luminescence quantum yield, the quotient of dividing the number of photons emitted from a sample by the number of photons absorbed into the sample, were measured with an SS-25 from JASCO Corporation.
# The luminescence quantum yield of an acetonitrile solution of the Eu(PMS)3(TPPO)8 obtained in Example 1 (europium ion concentration: 0.05 mol/L) was measured (excitation wavelength: 465 nm, maximum luminescence wavelength: 612 nm, luminescence wavelength used in measurement: 612 nm).
# The solutions prepared in Examples 12 to 14 and Comparative Examples 7 to 9 and Comparative Example B were measured for luminescence intensity at the respective maximum luminescence wavelengths.
# The relative luminescence intensity of the solutions used in Examples 12 to 14 and Comparative Example B: (luminescence intensity in each of Examples 12 to 14)/(luminescence intensity in Comparative Example 7) was calculated, letting 1 be the luminescence intensity in Comparative Example 7 (solution of a rare earth complex in which the ligand Z was not coordinated).
# Similarly, the relative luminescence intensity in Comparative Example 9: (luminescence intensity in Comparative Example 9)/(luminescence intensity in Comparative Example 8) was calculated, letting 1 be the luminescence intensity in Comparative Example 8 (solution of a known β-diketone-type of rare earth complex in which the ligand Z was not coordinated). The relative luminescence intensity of the solution used in Comparative Example B was 1.6 times.
# The luminescence quantum yield of an acetone-d6 solution of the Nd(PMS)3(TPPO)8 obtained in Example 2 (neodymium ion concentration: 0.05 mol/L) was measured (excitation wavelength: 585 nm, maximum luminescence wavelength: 1064 nm, luminescence wavelength used in measurement: 1064 nm).
# The solutions prepared in Examples 15 and 16 and Comparative Examples 10 were measured for luminescence intensity at the respective maximum luminescence wavelengths. The relative luminescence intensity in Examples 15 and 16: (luminescence intensity in each of Examples 15 and 16)/(luminescence intensity in Comparative Example 10) was calculated, letting 1 be the luminescence intensity in Comparative Example 10 (rare earth complex in which the ligand Z was not coordinated).
# [5] = Luminescence quantum yield and luminescence intensity in PMMA polymer matrix composition; settings: PMMA rod; for Luminescence quantum yield: rare earth ion 0.7 wt %
# Protocol: as §2
# A 1 mL quantity of refined anhydrous methyl methacrylate (MMA), 0.5 mg of AIBN, and 148 mg (0.7 wt %) as the rare earth ion concentration) of the Eu (PMS)3 (TPPO)8 obtained in Example 1 were mixed, the mixture was transferred to a Pyrex tube, and the inside of the tube was deaerated and then sealed. By reacting for 5 hours at 60° C., the polymerization of MMA was carried out. The resulting PMMA containing Eu(PMS)3 (TPPO)8 was taken out of the Pyrex tube, and a rod-shaped polymer matrix composition was obtained.
# (§3) The polymer matrix compositions prepared in Examples 17 to 19 and Comparative Example 11 were measured for luminescence intensity at the respective maximum luminescence wavelengths. The relative luminescence intensity in Examples 17 to 19: (luminescence intensity in each of Examples 17 to 19)/(luminescence intensity in Comparative Example 11) was calculated, letting 1 be the luminescence intensity in Comparative Example 11 (rare earth complex in which the ligand Z was not coordinated).
# A rod-shaped polymer matrix composition containing […] was obtained in the same manner as in Example 17, except that 148 mg (rare earth ion concentration: 0.7 wt %) of the Nd(PMS)3 (TPPO)8 obtained in Example 2 was used instead of Eu(PMS)3 (TPPO)8.
# as §3, with “20 and 21” for “17 to 19”, “12” for “11”, “20 and 21:” for “17 to 19:”, “20 and 21)/(luminescence” for “17 to 19)/(luminescence”, “12)” for “11)”
# [6] = acetonitrile solution, Eu 0.05 mol/L, relative to Eu(HFA)3 (Comparative Example 8) = 1
# [7] = acetonitrile solution, europium ion 0.05 mol/L, excitation 465 nm, luminescence 612 nm
# [8] = before drying (crystals as obtained), weight reduction at 100° C.
# [9] = acetonitrile solution, Eu 0.05 mol/L, relative to Eu(PMS)3 (Comparative Example 7) = 1
# [10] = Eu 0.7 wt %, relative to Eu(PMS)3 (Comparative Example 11) = 1
# [11] = excitation 465 nm, luminescence 612 nm
smiles,measurement,setting,value
"O=C(C=C([O-])C(F)(F)F)C(F)(F)F.O=C(C=C([O-])C(F)(F)F)C(F)(F)F.O=C(C=C([O-])C(F)(F)F)C(F)(F)F.O=P(c1ccccc1)(c1ccccc1)c1ccccc1.O=P(c1ccccc1)(c1ccccc1)c1ccccc1.[Eu+3] [Eu(HFA)3(TPPO)2, reference compound]","Miscibility, Acetone",[1],⊚
same,"Miscibility, Chloroform",[1],◯
same,"Miscibility, Toluene",[1],◯
same,"Miscibility, Water",[1],X
same,"Miscibility, Epoxy resin",[2],◯ (dissolves up to 5 wt %)
same,"Miscibility, Nafion",[2],"Δ (disperses up to 5 wt %, but there is turbidity)"
same,"Miscibility, PMMA",[2],"Δ (disperses up to 5 wt %, but there is turbidity)"
same,Bound water (number of moles of bound water per mole of complex),[3],0.00
same,Relative luminescence intensity,[4]; [6],4.6
"O=C(C=C([O-])C(F)(F)F)C(F)(F)F.O=C(C=C([O-])C(F)(F)F)C(F)(F)F.O=C(C=C([O-])C(F)(F)F)C(F)(F)F.[Eu+3] [Eu(HFA)3, reference compound]","Miscibility, Acetone",[1],⊚
same,"Miscibility, Chloroform",[1],X
same,"Miscibility, Toluene",[1],X
same,"Miscibility, Water",[1],X
same,"Miscibility, Epoxy resin",[2],◯ (dissolves up to 5 wt %)
same,"Miscibility, Nafion",[2],"Δ (disperses up to 5 wt %, but there is turbidity)"
same,"Miscibility, PMMA",[2],X
same,Bound water (number of moles of bound water per mole of complex),[3],2.00
same,Relative luminescence intensity,[4]; [6],1.0
same,Luminescence quantum yield,[4]; [7],8.0%
O=S(=O)([N-]S(=O)(=O)C(F)(F)F)C(F)(F)F.O=S(=O)([N-]S(=O)(=O)C(F)(F)F)C(F)(F)F.O=S(=O)([N-]S(=O)(=O)C(F)(F)F)C(F)(F)F.O=S(c1ccccc1)c1ccccc1.O=S(c1ccccc1)c1ccccc1.O=S(c1ccccc1)c1ccccc1.O=S(c1ccccc1)c1ccccc1.O=S(c1ccccc1)c1ccccc1.O=S(c1ccccc1)c1ccccc1.O=S(c1ccccc1)c1ccccc1.O=S(c1ccccc1)c1ccccc1.[Eu+3] [Eu(PMS)3(DPSO)8],"Miscibility, Acetone",[1],⊚
same,"Miscibility, Chloroform",[1],◯
same,"Miscibility, Toluene",[1],◯
same,"Miscibility, Water",[1],X
same,"Miscibility, Epoxy resin",[2],◯ (dissolves up to 5 wt %)
same,"Miscibility, Nafion",[2],◯ (dissolves up to 5 wt %)
same,"Miscibility, PMMA",[2],◯ (dissolves up to 5 wt %)
same,Bound water (number of moles of bound water per mole of complex),[3],0.00
same,Number of moles of bound water per mole of complex,[3]; [8],water was not coordinated
same,Relative luminescence intensity,[4]; [9],41.7
same,Luminescence quantum yield,[4]; [7],32.0%
same,Relative luminescence intensity,[5]; [10],710
same,Luminescence quantum yield,[5]; [11],39.0%
O=P(c1ccccc1)(c1ccccc1)c1ccccc1.O=P(c1ccccc1)(c1ccccc1)c1ccccc1.O=P(c1ccccc1)(c1ccccc1)c1ccccc1.O=P(c1ccccc1)(c1ccccc1)c1ccccc1.O=P(c1ccccc1)(c1ccccc1)c1ccccc1.O=P(c1ccccc1)(c1ccccc1)c1ccccc1.O=P(c1ccccc1)(c1ccccc1)c1ccccc1.O=P(c1ccccc1)(c1ccccc1)c1ccccc1.O=S(=O)([N-]S(=O)(=O)C(F)(F)F)C(F)(F)F.O=S(=O)([N-]S(=O)(=O)C(F)(F)F)C(F)(F)F.O=S(=O)([N-]S(=O)(=O)C(F)(F)F)C(F)(F)F.[Eu+3] [Eu(PMS)3(TPPO)8],"Miscibility, Acetone",[1],⊚
same,"Miscibility, Chloroform",[1],⊚
same,"Miscibility, Toluene",[1],◯
same,"Miscibility, Water",[1],X
same,"Miscibility, Epoxy resin",[2],◯ (dissolves up to 5 wt %)
same,"Miscibility, Nafion",[2],◯ (dissolves up to 5 wt %)
same,"Miscibility, PMMA",[2],◯ (dissolves up to 5 wt %)
same,Bound water (number of moles of bound water per mole of complex),[3],0.18
same,Number of moles of bound water per mole of complex,[3]; after drying in vacuo at 140° C.,0.18
same,Number of moles of bound water per mole of complex,[3]; [8],2.93
same,Relative luminescence intensity,[4]; [9],45.1
same,Luminescence quantum yield,[4]; [7],5.6%
same,Relative luminescence intensity,[5]; [10],15466
same,Luminescence quantum yield,[5]; [11],19.0%
O=S(=O)([N-]S(=O)(=O)C(F)(F)F)C(F)(F)F.O=S(=O)([N-]S(=O)(=O)C(F)(F)F)C(F)(F)F.O=S(=O)([N-]S(=O)(=O)C(F)(F)F)C(F)(F)F.O=S(c1ccccc1)c1ccccc1.O=S(c1ccccc1)c1ccccc1.O=S(c1ccccc1)c1ccccc1.O=S(c1ccccc1)c1ccccc1.O=S(c1ccccc1)c1ccccc1.O=S(c1ccccc1)c1ccccc1.O=S(c1ccccc1)c1ccccc1.O=S(c1ccccc1)c1ccccc1.[Nd+3] [Nd(PMS)3(DPSO)8],"Miscibility, Acetone",[1],⊚
same,"Miscibility, Chloroform",[1],◯
same,"Miscibility, Toluene",[1],◯
same,"Miscibility, Water",[1],X
same,"Miscibility, Epoxy resin",[2],◯ (dissolves up to 5 wt %)
same,"Miscibility, Nafion",[2],◯ (dissolves up to 5 wt %)
same,"Miscibility, PMMA",[2],◯ (dissolves up to 5 wt %)
same,Bound water (number of moles of bound water per mole of complex),[3],0.00
same,Relative luminescence intensity,"[4]; acetone-d6 solution, Nd 0.05 mol/L, relative to Nd(PMS)3 (Comparative Example 10) = 1",1.6
same,Luminescence quantum yield,"[4]; acetone-d6 solution, neodymium ion 0.05 mol/L, excitation 585 nm, luminescence 1064 nm",1.3%
same,Relative luminescence intensity,"[5]; Nd 0.7 wt %, relative to Nd(PMS)3 (Comparative Example 12) = 1",90
same,Luminescence quantum yield,"[5]; excitation 585 nm, luminescence 1064 nm",0.9%
